Test results reported in patent publication US20210290648A1, “Potentiation of B-Lactam Antibiotics and B-Lactam/B-Lactamase Inhibitor Combinations Against Multidrug and Extensively Drug-Resistant Pseudomonas Aeruginosa Using Non-Ribosomal Tobramycin-Cyclam Conjugates” (University of Manitoba, priority 2018, published 2021).
Where two headings read alike, the source gives them in different places.

How the values were obtained:
[1] = tested on: PA108590; assay: MIC / triple combination susceptibility; type: cell-based, Pseudomonas aeruginosa; conditions: triple combination with avibactam and compound 2 (8 μM each); ceftazidime, aztreonam, meropenem
Description: The diazabicyclooctane β-lactamase inhibitor, avibactam, is able to inhibit a wide range of serine β-lactamases (class A, C, and D) but not metallo-β-lactamases (class B) (50, 51).^50,51 However, the high concentration of avibactam required to neutralize the effects of β-lactamase enzymes in these phenotypes is indicative of concomitant permeability barriers in the isolates, such as reduced porin uptake. […] The results of this study are shown in (FIG. 6). All isolates were resistant to all three β-lactam antibiotics used for the study. […] As expected, the study with meropenem was slightly different from others.
Antimicrobial Susceptibility Assay. The in vitro antimicrobial activity of all compounds/antibiotics against a panel of bacteria was evaluated by microbroth dilution method in accordance with the Clinical and Laboratory Standards Institute (CLSI) guidelines. […]
Checkerboard Assay. […] After incubation, the plates were read on EMax® Plus microplate reader (Molecular Devices, Sunnyvale, Calif., USA) at 590 nm. MIC was recorded as wells with the lowest concentration of drugs with no bacterial growth. The fractional inhibitory concentration (FIC) for each antibiotic was calculated by dividing the MIC of the antibiotic in the presence of adjuvant by the MIC of the antibiotic alone. […]

[2] = tested on: MDR PA108590; assay: Time-kill assay, triple combination; type: cell-based, Pseudomonas aeruginosa
[3] = tested on: E. coli ATCC 25922; assay: MIC, microbroth dilution; type: cell-based; conditions: standalone
Experimental: Antimicrobial Susceptibility Assay. The in vitro antimicrobial activity of all compounds/antibiotics against a panel of bacteria was evaluated by microbroth dilution method in accordance with the Clinical and Laboratory Standards Institute (CLSI) guidelines. Overnight grown bacterial cultures were diluted in saline to achieve a 0.5 McFarland turbidity, followed by 1:50 dilution in Mueller-Hinton broth (MHB) for inoculation to a final concentration of approximately 5×10^5CFU/mL. The antimicrobial agents were 2-fold serially diluted in MHB in a 96-well plate and incubated at 37° C. with equal volumes of inoculum for 18 h. The lowest concentration that prevented the visible growth of bacteria was defined as the MIC for each antimicrobial agent. The broth with or without bacterial cells was used as positive or negative control, respectively.

[4] = tested on: PA 114228; assay: Checkerboard combination study / MIC; type: cell-based, Pseudomonas aeruginosa
[5] = tested on: PA 259; assay: Checkerboard combination study / MIC; type: cell-based, Pseudomonas aeruginosa
[6] = tested on: PA 101885; assay: Checkerboard combination study / MIC; type: cell-based, Pseudomonas aeruginosa
[7] = tested on: MDR PA108590-challenged larvae; assay: Galleria mellonella infection model, efficacy; type: in vivo; conditions: ceftazidime+avibactam+compound 2, 1.56+1.56+3.12 mg/kg
Description: In vivo larvae-infection model.

[8] = tested on: WT P. aeruginosa PAO1; assay: Checkerboard combination study / MIC; type: cell-based, Pseudomonas aeruginosa; conditions: for MIC: Pseudomonas aeruginosa
[9] = tested on: MDR/XDR P. aeruginosa clinical isolates; assay: MIC and checkerboard, panel of clinical isolates; type: cell-based, Pseudomonas aeruginosa; conditions: antibiotic + compound 2 (8.7 μM); resistant P. aeruginosa isolates
[10] = tested on: MDR PA101885; assay: Time-kill assay; type: cell-based, Pseudomonas aeruginosa
Experimental: (§1) Time-kill curves typically reveal the kinetics of bacterial growth and death, with respect to time, at different antimicrobial concentrations. An antibiotic could either be bactericidal or bacteriostatic under specific growth conditions. Bactericidal activity is defined as a ≥3-log reduction in the total CFU/mL from the original inoculum over 24 hours while bacteriostatic activity is defined as maintenance of <3-log reduction in the total CFU/mL from the original inoculum (44). […] Growth curves were initially performed to ensure that strains will reach a stable early- to mid-log phase after 4 h of pre-incubation in antimicrobial-free LB medium.
(§2) Time-kill assay. Time-kill curve analyses were performed by culturing P. aeruginosa in LB medium, in the presence of antibiotics alone and in combination with test adjuvants. MICs of antibiotics and adjuvants were determined before the experiment following CLSI microbroth dilution guidelines. Growth curves were initially performed to confirm that all strains will reach a stable early- to mid-log phase after 4 h of pre-incubation in antimicrobial-free LB medium. A 0.5 McFarland inoculum of each strain was prepared in sterile 0.85% saline solution from an overnight grown culture. For each strain, 30 μl of the prepared inoculum was diluted to 3 ml of LB broth (containing different combinations of antimicrobial agents and adjuvants) and incubated at 37° C. shaking at 250 rpm. At specific time intervals (0, 1, 3, 6, 9, and 24 h), 100 μl was taken from each sample, serially diluted in sterile PBS, plated on LB agar plates, and incubated at 37° C. in a humid 5% CO2-enriched atmosphere. Bacteria colonies were counted after 20 h of incubation.

[11] = tested on: wild type P. aeruginosa PAO1; assay: Time-kill assay; type: cell-based, Pseudomonas aeruginosa; conditions: WT PAO1
Experimental: as §1, §2

[12] = MIC of antibiotic combined with compound 2

In the case of “5-O-(Octylcyclam)-tobramycin.9TFA [Compound 2]”, the “potentiation of all three β-lactam antibiotics” value [1] is reported as 128 fold, the “bacterial counts lower than ceftazidime+avibactam” value ([2]; ceftazidime + avibactam + compound 2, after 3 h) is reported as over 2 Log and the “time to sterilization of bacteria culture” value ([2]; triple combination ceftazidime + avibactam + compound 2, limit of detection 10 CFU/mL) is reported as at most 3 h. For the same molecule, the “reduction in total CFU/mL from original inoculum” value ([2]; triple combination ceftazidime + avibactam + compound 2, within 3 h) was 6 Log, the MIC [3] was 64 µg/mL and the “MICCombination (2)” value ([4]; MIC of 2 combined with AZT) was 4 µg/mL. For the same molecule, the “MICCombination (2)” value ([4]; MIC of 2 combined with CAZ) was 16 µg/mL, the “MICCombination (2)” value ([4]; MIC of 2 combined with CEF) was 4 µg/mL and the “MICCombination (2)” value ([4]; MIC of 2 combined with DOR) was 4 µg/mL. For the same molecule, the “MICCombination (2)” value ([4]; MIC of 2 combined with MER) was 8 µg/mL, the “MICCombination (2)” value ([4]; MIC of 2 combined with PIP) was 0.5 µg/mL and the FIC2 ([4]; with AZT) was under 0.0156. For the same molecule, the FIC2 ([4]; with CAZ) was under 0.0625, the FIC2 ([4]; with CEF) was under 0.0156 and the FIC2 ([4]; with DOR) was under 0.0156. For the same molecule, the FIC2 ([4]; with MER) was under 0.0313, the FIC2 ([4]; with PIP) was under 0.0020 and the “MICCombination (2)” value ([5]; MIC of 2 combined with AZT) was 16 µg/mL. The “MICCombination (2)” value ([5]; MIC of 2 combined with CAZ) was 16 µg/mL, the “MICCombination (2)” value ([5]; MIC of 2 combined with CEF) was 16 µg/mL and the “MICCombination (2)” value ([5]; MIC of 2 combined with MER) was 16 µg/mL. The “MICCombination (2)” value ([5]; MIC of 2 combined with PIP) was 1 µg/mL, the FIC2 ([5]; with AZT) was under 0.0625 and the FIC2 ([5]; with CAZ) was under 0.0625. The FIC2 ([5]; with CEF) was under 0.0625, the FIC2 ([5]; with MER) was under 0.0625 and the FIC2 ([5]; with PIP) was under 0.0039. For the same molecule, the “MICCombination (2)” value ([6]; MIC of 2 combined with AZT) was 16 µg/mL, the “MICCombination (2)” value ([6]; MIC of 2 combined with CAZ) was 8 µg/mL and the “MICCombination (2)” value ([6]; MIC of 2 combined with CEF) was 16 µg/mL. The “MICCombination (2)” value ([6]; MIC of 2 combined with DOR) was 4 µg/mL, the “MICCombination (2)” value ([6]; MIC of 2 combined with MER) was 8 µg/mL and the “MICCombination (2)” value ([6]; MIC of 2 combined with PIP) was 16 µg/mL. It also gave an FIC2 ([6]; with AZT) of under 0.0625, an FIC2 ([6]; with CAZ) of under 0.0313 and an FIC2 ([6]; with CEF) of under 0.0625. For the same molecule, the FIC2 ([6]; with DOR) was under 0.0156, the FIC2 ([6]; with MER) was under 0.0313 and the FIC2 ([6]; with PIP) was under 0.0625. The survival of larvae ([7]; after 24 h) was 100% and the survival of larvae ([7]; after 36 h) was 95%.
In the case of `C[C@H]1[C@H](NC(=O)/C(=N\OC(C)(C)C(=O)O)c2csc(N)n2)C(=O)N1S(=O)(=O)O` [Aztreonam], the “MIC of antibiotic + Compound 2 in PAO1” value ([8]; + compound 2 ≤8.7 μM, PAO1) is reported as 0.25 µg/mL, the MIC ([8]; PAO1, 18 h, antibiotic alone, WT PAO1 (Table 2), read-out: MIC alone) is reported as 4 µg/mL and the MIC ([8]; PAO1, FIG. 7 legend, read-out: MIC against WT PAO1) is reported as 0.004 µg/mL. For the same molecule, the MIC ([8]; PAO1, time-kill study text and FIG. 7 legend, read-out: MIC against WT PAO1) was 4 µg/mL, the “FICI in the presence of ≤10 μM of 1” value ([8]; antibiotic + compound 1, WT PAO1) was 0.13 and the “MIC of Antibiotics in the presence of ≤10 μM of 1” value ([8]; antibiotic + compound 1 ≤10 μM, WT PAO1) was 0.5 µg/mL. The “FICI in the presence of ≤10 μM of 2” value ([8]; antibiotic + compound 2, WT PAO1) was 0.07, the “MIC of Antibiotics in the presence of ≤10 μM of 2” value ([8]; antibiotic + compound 2 ≤10 μM, WT PAO1) was 0.25 µg/mL and the “FICI in the presence of ≤10 μM of 3” value ([8]; antibiotic + compound 3, WT PAO1) was 0.14. The “MIC of Antibiotics in the presence of ≤10 μM of 3” value ([8]; antibiotic + compound 3 ≤10 μM, WT PAO1) was 0.5 µg/mL, the “MIC of antibiotic alone in PAO1” value ([8]; antibiotic alone, PAO1 wild-type (Table 4)) was 4 µg/mL and the “resistant isolates reaching CLSI clinical breakpoint” value [9] was “seven out of nine”. For the same molecule, the “interaction with compound 2 in time-kill” value ([10]; 24 h) was “synergistic”, the “time-kill effect, antibiotic + compound 2” value ([10]; CLSI breakpoint concentration + 4.4 μM or 8.7 μM compound 2, after about 6 h) was “strongly bactericidal” and the “time-kill effect, antibiotic alone” value ([10]; at CLSI breakpoint concentration (aztreonam 8 μg/mL, meropenem 2 μg/mL)) was “bacteriostatic effect”. The “interaction with compound 2 in time-kill” value ([11]; 24 h) was “synergistic”, the “time-kill effect, antibiotic alone” value ([11]; at MIC (aztreonam 4 μg/mL, meropenem 1 μg/mL)) was “time-dependent bactericidal effect” and the “MICCombination (antibiotic)” value [5, 12] was 4 µg/mL. The FICI ([5]; antibiotic + compound 2) was under 0.19, the MICAntibiotic ([5]; antibiotic alone) was 32 µg/mL and the “MICCombination (antibiotic)” value [6, 12] was 0.5 µg/mL. The FICI ([6]; antibiotic + compound 2) was under 0.09, the MICAntibiotic ([6]; antibiotic alone) was 16 µg/mL and the FICAntibiotic ([6]; with compound 2) was 0.031.
